This is an account of results in US20260234137A1, “BICYCLIC ENHANCERS OF THE PARTICULATE GUANYLYL CYCLASE RECEPTOR A” (University of Florida Research Foundation, Incorporated, priority 2022, published 2026).

Entries after “also recorded” stand apart in the source; their conditions may differ. Read-outs that look alike come from different tables or passages of the source.

In data set [1] the target is T1, human GC-A (Homo sapiens, UniProt P16066).
T1 construct: host or cells: HEK293
T1 sequence (P16066 33-1061): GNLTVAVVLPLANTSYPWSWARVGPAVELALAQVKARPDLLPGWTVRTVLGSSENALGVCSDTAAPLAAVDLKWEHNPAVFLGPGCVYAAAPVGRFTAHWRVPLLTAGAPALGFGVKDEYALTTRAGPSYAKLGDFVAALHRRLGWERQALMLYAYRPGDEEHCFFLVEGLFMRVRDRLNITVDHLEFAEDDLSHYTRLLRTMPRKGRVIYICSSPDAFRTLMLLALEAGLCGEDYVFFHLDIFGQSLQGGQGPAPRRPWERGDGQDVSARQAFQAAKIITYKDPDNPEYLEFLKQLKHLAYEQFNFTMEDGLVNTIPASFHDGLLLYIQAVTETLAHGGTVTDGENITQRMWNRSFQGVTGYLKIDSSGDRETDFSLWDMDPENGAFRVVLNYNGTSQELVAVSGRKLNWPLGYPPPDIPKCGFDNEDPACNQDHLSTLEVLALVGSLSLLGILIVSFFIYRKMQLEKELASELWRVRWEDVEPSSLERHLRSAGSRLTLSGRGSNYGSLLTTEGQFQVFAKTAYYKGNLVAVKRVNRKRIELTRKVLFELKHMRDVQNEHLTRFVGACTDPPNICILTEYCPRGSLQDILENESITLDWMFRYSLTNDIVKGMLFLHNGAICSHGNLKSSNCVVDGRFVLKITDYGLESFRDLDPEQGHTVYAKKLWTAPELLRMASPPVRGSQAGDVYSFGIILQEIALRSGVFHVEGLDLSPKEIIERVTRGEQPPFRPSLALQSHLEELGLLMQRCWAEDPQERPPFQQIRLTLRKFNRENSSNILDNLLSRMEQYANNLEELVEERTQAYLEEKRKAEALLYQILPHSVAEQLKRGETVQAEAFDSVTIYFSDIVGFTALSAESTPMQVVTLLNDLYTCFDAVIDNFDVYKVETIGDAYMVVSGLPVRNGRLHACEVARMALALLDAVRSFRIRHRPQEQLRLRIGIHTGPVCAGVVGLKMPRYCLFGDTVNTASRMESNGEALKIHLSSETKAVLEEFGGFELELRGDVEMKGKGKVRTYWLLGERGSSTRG
T1 sequence (P01160 124-151 partner limits assumed): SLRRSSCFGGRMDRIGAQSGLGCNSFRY
Kind of data set: cGMP potentiation (HTRF) in human GC-A overexpressing HEK293 cells with EC20 ANP. In kind it is cell-based. Conditions: for IC50: Table 3, additional compounds, modulation of pGC-A; for Emax: HEK293. As to the method: Test compounds were evaluated for potentiation of cGMP in human GC-A overexpressing HEK293 cells (Cardiorenal Research Laboratory, Mayo Clinic). Test compounds at 10 mM DMSO stock concentration were dispensed into 384 well small volume white plates using Tecan D300e digital dispenser starting at 5 μM concentration and diluted 2-fold for 10-point concentration response. Wells were backfilled with DMSO such that the final concentration of DMSO in all wells was maintained at 0.3% DMSO. Atrial natriuretic peptide (ANP, Phoenix Pharmaceuticals) peptide ANP was prepared as working stock aliquots at 5 μM in phosphate-buffered solution (PBS) with 0.1% bovine serum albumin (BSA) and diluted to […] in buffer+Tween20 at 0.3% and added to plates to a final concentration of 20 pM (EC20). GC-A cells in suspension […] in OptiMem media (11058-021) supplemented with 2% fetal bovine serum were plated at 1×10^6 cells/mL and assay plates were spun at 1000 rpm for 30 sec and incubated at RT for 30 min. GC-A-mediated activation of cGMP production was measured using cGMP CisBio detection homogenous time-resolved florescence (HTRF) competition assay using labeled-cGMP in human GC-A-overexpressing HEK293 cells. 5 μL of d-2 acceptor was dispensed into each well followed by addition of 5 μL of Anti-cGMP Eu-Cryptate antibody donor and plates were spun at 1000 rpm for 30 sec and incubated in the dark at RT for 1 hr. HTRF florescence was read on the ClarioStar microplate reader (BMG). A 100% response was determined from wells in the absence of compound and presence of saturating concentration of ANP (10 nM), and 0% response was determined from wells containing an EC20 concentration of ANP determined for each new lot of ANP. EC20 values of ANP were maintained in the range of 15-30 pM across all assay plates tested.
Test compounds were tested in the absence of ANP to determine agonist activity.
(Time-resolved FRET reads energy transfer from a long-lived donor to a nearby acceptor.)

The target in data set [2] is hERG channel (Homo sapiens, UniProt Q12809). The data set can be described thus: hERG binding / selectivity over hERG.
hERG channel, sequence (Q12809 whole entry): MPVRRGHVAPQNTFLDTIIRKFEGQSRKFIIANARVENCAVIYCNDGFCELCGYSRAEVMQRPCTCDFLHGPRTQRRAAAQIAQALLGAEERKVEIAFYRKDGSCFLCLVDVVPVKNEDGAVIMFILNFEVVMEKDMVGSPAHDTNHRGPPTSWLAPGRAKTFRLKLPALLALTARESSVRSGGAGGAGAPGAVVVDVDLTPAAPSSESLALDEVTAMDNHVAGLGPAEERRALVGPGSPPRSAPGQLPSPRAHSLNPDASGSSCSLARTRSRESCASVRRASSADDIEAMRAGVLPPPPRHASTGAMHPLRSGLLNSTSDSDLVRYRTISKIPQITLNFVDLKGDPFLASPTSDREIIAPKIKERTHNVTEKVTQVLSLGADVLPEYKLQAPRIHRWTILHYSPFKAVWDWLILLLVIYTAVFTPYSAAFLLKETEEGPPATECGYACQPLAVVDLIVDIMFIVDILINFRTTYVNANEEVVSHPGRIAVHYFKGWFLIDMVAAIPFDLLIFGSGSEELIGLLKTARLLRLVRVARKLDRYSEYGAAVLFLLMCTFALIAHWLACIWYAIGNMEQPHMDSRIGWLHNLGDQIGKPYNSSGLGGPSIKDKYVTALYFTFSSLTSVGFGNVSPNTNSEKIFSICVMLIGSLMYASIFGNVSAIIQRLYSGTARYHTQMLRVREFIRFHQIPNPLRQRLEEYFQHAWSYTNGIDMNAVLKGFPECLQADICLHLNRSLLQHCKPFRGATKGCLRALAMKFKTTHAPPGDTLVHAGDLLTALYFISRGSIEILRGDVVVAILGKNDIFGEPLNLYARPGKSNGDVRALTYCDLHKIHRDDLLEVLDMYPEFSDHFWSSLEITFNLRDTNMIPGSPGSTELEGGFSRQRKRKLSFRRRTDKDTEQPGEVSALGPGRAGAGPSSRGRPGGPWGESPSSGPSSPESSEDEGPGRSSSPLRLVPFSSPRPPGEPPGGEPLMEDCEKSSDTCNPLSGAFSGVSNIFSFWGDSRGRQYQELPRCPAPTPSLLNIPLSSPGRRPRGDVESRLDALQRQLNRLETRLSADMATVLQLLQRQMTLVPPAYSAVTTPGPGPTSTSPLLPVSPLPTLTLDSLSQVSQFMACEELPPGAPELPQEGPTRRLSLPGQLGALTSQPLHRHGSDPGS
The conditions of data set [3]: cited from earlier work.
The mark [4] stands for this setting: Table 1, 100% = saturating ANP (10 nM), 0% = EC20 ANP, read-out: Emax (%).
[5] abbreviates: Table 1, Formula (I-a), cGMP potentiation, ANP at EC20, read-out: EC50.

Take `CN(C)CCN1CCCC(C(=O)Nc2nc3c(F)cc(C(F)(F)F)cc3s2)C1` (centres unmarked) [JUF-S3-004]: the IC50 in data set [1] is above 5 µM. `Cc1cc(F)c2nc(NC(=O)C3CCCN(CCN(C)C)C3)sc2c1` (centres unmarked) [JUF-S3-005]: in data set [1], the IC50 was 0.9 µM.

Regarding `COc1cc(F)c2nc(NC(=O)C3CCCN(CCN(C)C)C3)sc2c1` (centres unmarked) [JUF-S3-006], the maximal effect (Emax) in data set [1] (Table 3, 100% = saturating ANP (10 nM), 0% = EC20 ANP, read-out: Emax (%)) came out at 112%. The IC50 in data set [1] came out at 6.7 µM. Turning to `CCOc1cc(F)c2nc(NC(=O)C3CCCN(CCN(C)C)C3)sc2c1` (centres unmarked) [JUF-S3-010], the IC50 in data set [1] was above 5 µM. Regarding `CN(C)c1ccc(N2CCCC(C(=O)Nc3nc4c(F)cc(F)cc4s3)C2)cc1` (centres unmarked) [JUF-S4-009], in data set [1], the “GC-A activity (in words)” value is on record as “active”.

For `O=C(Nc1nc2c(F)cc(F)cc2s1)C1CCCN(CCn2cccn2)C1` (centres unmarked) [JUF-S4-012], the “GC-A activity (in words)” value in data set [1] is recorded as “tolerated”. Also, the LLE in data set [1] (Table 1) is 2.91. For `O=C(Nc1nc2c(F)cc(F)cc2s1)C1CCCN(CCN2CCCC2=O)C1` (centres unmarked) [JUF-S4-014], the “GC-A activity (in words)” value in data set [1] was “loss of activity”. Besides, in data set [1] (setting [4]), the maximum response (Emax) was found to be 105%. Take `CN1CCC(N2CCCC(C(=O)Nc3nc4c(F)cc(F)cc4s3)C2)C1` (centres unmarked) [JUF-S4-015]: in data set [1] (setting [4]), the maximum response (Emax) amounted to 89%. The LLE in data set [1] (Table 1) is recorded as 4.09- 4.39. Moreover, the EC50 in data set [1] (setting [5]) was determined as 0.13 µM.

Take `CN1CCCC(N2CCCC(C(=O)Nc3nc4c(F)cc(F)cc4s3)C2)C1` (centres unmarked) [JUF-S4-016]: in data set [1] (setting [4]), the Emax stood at 97%. For `Cn1cc(N2CCCC(C(=O)Nc3nc4c(F)cc(F)cc4s3)C2)cn1` (centres unmarked) [JUF-S4-023], the maximum response (Emax) in data set [1] (setting [4]) lay within 81 to 86%. Further, the half-maximal effective concentration (EC50) in data set [1] (setting [5]) fell in the range of 2.1 to 4.9 µM. Take `O=C(Nc1nc2c(F)cc(F)cc2s1)C1CCCN(c2cccnc2)C1` (centres unmarked) [JUF-S4-025]: in data set [1] (setting [4]), the Emax fell in the range of 104 to 135%. Further, in data set [1] (setting [5]), the EC50 is 2.5 to 7.4 µM. Take `O=C(Nc1nc2c(F)cc(F)cc2s1)C1CCCN(c2ccncc2)C1` (centres unmarked) [JUF-S4-026]: in data set [1], the “GC-A activity (in words)” value is reported as “active; also recorded: more active than MCUF-651”. Besides, the LLE in data set [1] (Table 1) is on record as 3.28- 3.72. For the same molecule, in data set [2], the “hERG binding (in words)” value was “did not result in selectivity over hERG binding”. With `O=C(Nc1nc2c(F)cc(F)cc2s1)C1CCCN(C2CNC2)C1` (centres unmarked) [JUF-S4-029A], in data set [1] (setting [4]), the maximal response (Emax) was 84 to 89%. Moreover, in data set [1] (setting [5]), the EC50 lay within 0.08 to 0.2 µM. As to `CN1CC(N2CCCC(C(=O)Nc3nc4c(F)cc(F)cc4s3)C2)C1` (centres unmarked) [JUF-S4-029], in data set [1], the “GC-A activity (in words)” value was “high potency in activation of GC-A”. Besides, the LLE in data set [1] (Table 1) stood at 5.11. The “potency in activation of GC-A relative to MCUF-651” value in data set [1] (compared to MCUF-651) was ~ 10 fold. In addition, in data set [2], the “hERG binding (in words)” value is reported as “did not eliminate hERG binding”; the “toxicity from binding at hERG channel and other off-target toxicity (in words)” value is “reduced toxicity”. Besides, the selectivity ratio in data set [2] (human, compared to MCUF-651, read-out: selectivity for GC-A vs hERG relative to MCUF-651) was in the range of 50 to 100.

For the molecule `CN(C)CCN1CC(C(=O)Nc2nc3c(F)cc(F)cc3s2)CCC1=O` (centres unmarked) [JUF-S11-001], the EC50 in data set [1] (Table 2, Formula (I-b), cGMP potentiation, ANP at EC20, read-out: EC50) was above 5 µM. As for `O=C(Nc1nc2c(F)cc(F)cc2s1)C1CNCCN1C(=O)OCc1ccccc1` (centres unmarked) [JUF-S11-002A], in data set [1], the IC50 is above 5 µM.

With `O=C(Nc1nc2c(F)cc(F)cc2s1)C1CNCCO1` (centres unmarked) [JUF-S11-003A], the IC50 in data set [1] was above 5 µM.

Take `CN(C)CCN1CCOC(C(=O)Nc2nc3c(F)cc(F)cc3s2)C1` (centres unmarked) [JUF-S11-003]: the IC50 in data set [1] is above 5 µM. Regarding `CN(C)CCN1CCCC(C(=O)Nc2nc3c(F)cc(F)cc3s2)C1` (centres unmarked) [MCUF 651, reference compound], the “Emax values of internal control” value in data set [1] (FIG. 2, titrated on each 384-test plate) is given as 80-100 % response. In addition, the EC50 in data set [1] (FIG. 2, titrated on each 384-test plate, read-out: Acceptable EC50 values of internal control) was in the range of 0.2 to 0.6 µM. Take `CN(C)CCN1CCCC(C(=O)Nc2nc3c(F)cc(F)cc3s2)C1` (centres unmarked) [MCUF-651]: the Emax in data set [1] (control on each assay plate, read-out: Emax range of control compound) was 75 to 85%. In data set [3], the “in vivo activity (in words)” value was “active in vivo”. The “oral bioavailability (in words)” value in data set [3] (in vivo, po) was “orally bioavailable”.

Usually IC50 stands for the concentration needed to halve the response being measured. For orientation: Emax means the size of the effect at its maximum, as opposed to the concentration needed. What is called EC50 is the concentration needed to bring the measured effect to its halfway point.
